The values below come from patent US7601357B2 (priority 2005, dated 2009).

Data set [1] concerns the target T1, LIPY (Mycobacterium tuberculosis, UniProt I6Y2J4).
T1 construct: The 24 open-reading frames (ORFs) were amplified from the genomic DNA of M. tuberculosis H37Rv; 6xHis (pET200 D-TOPO N-terminal fusion) (N); made in house; host or cells: E. coli BL21 Star (DE3)
T1 sequence (I6Y2J4 1-437): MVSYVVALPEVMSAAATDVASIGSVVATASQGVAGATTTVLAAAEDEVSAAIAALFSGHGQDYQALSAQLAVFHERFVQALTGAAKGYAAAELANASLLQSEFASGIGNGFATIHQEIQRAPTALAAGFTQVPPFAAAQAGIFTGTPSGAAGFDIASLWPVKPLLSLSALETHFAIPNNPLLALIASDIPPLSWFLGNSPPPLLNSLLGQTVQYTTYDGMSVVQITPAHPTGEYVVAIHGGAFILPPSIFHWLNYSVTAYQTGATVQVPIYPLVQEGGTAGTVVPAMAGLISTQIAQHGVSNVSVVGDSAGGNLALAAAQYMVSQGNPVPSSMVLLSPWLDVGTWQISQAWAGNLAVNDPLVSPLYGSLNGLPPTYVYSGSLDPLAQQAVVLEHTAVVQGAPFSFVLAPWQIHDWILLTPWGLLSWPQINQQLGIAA
The format is biochemical.

The format of data set [2] is biochemical, M. tuberculosis. Conditions: pH 8.

Several values for one entry are separate records, joined by “and”; a condition that tells them apart may be missing. Equal entries are not always repeated. Where two headings read alike, the source gives them in different places.

As for `[Cl-].[Na+]` [NaCl], in data set [1], the “Effect of salt on LIPY activity (in words)” value (“Effect of salt” for short) is given as “enhanced the activity” and the “LIPY activity (triolein hydrolase) Mean ± SD” value was found to be 681.3 ± 87.2 nmol/mg/min.

In the case of `[Cl-].[K+]` [KCl], in data set [1], the “Effect of salt” value is on record as “enhanced the activity”; the “LIPY activity (triolein hydrolase) Mean ± SD” value is 675.2 ± 103.5 nmol/mg/min and 686.8 ± 68.8 nmol/mg/min. As to `[Cl-].[Cl-].[Co+2]` [CoCl2], the “Effect of salt” value in data set [1] is recorded as “inhibited the activity”.

For the molecule `CCOP(=O)(OCC)Oc1ccc([N+](=O)[O-])cc1` [E-600, diethyl-p-nitrophenyl phosphate, reference compound], the “Inhibition of LIPY activity” value in data set [1] (0.5 µM) is 99.5%.

As for `CC(=O)[O-].[Na+]` [CH3COO.Na, sodium acetate], in data set [1], the “Effect of salt” value is given as “enhanced the activity”; the “LIPY activity (triolein hydrolase) Mean ± SD” value was 681.7 ± 80.3 nmol/mg/min and 729.3 ± 96.5 nmol/mg/min. Regarding `[Cl][Mn][Cl]` [MnCl2], the “Effect of salt” value in data set [1] is on record as “inhibited the activity”. Turning to `CCCCCCCCCCCCOS(=O)(=O)[O-].[Na+]` [SDS, sodium dodecyl sulfate, reference compound], the “Effect of detergent on LIPY lipase activity” value (from here on “Effect of detergent”) is listed as “severely inhibited” in data set [1] (concentrations above 2 mM) and “stimulated slightly” in data set [1] (concentrations up to 2 mM). `[Cl-].[Cl-].[Mg+2]` [MgCl2]: in data set [1], the “Effect of salt” value is given as “inhibited the activity”; the “LIPY activity (triolein hydrolase) Mean ± SD” value is 306.3 ± 111.1 nmol/mg/min and 219.9 ± 34.3 nmol/mg/min. With “polyethylene glycol tert-octylphenyl ether [Triton X-100, reference compound]”, the “Effect of detergent” value in data set [1] (0.1%) was “stimulated the activity”; in data set [1] (concentrations higher than 0.1%) it was “inhibitory”. On to `CC(=O)[O-].[K+]` [CH3COO.K, potassium acetate], for which, in data set [1], the “Effect of salt” value is reported as “enhanced the activity”; the “LIPY activity (triolein hydrolase) Mean ± SD” value was 692.6 ± 57.0 nmol/mg/min and 749.0 ± 73.3 nmol/mg/min.

For the molecule `CCCCCCCCCCCC(=O)OCCOCCOCCOCCOCCOCCOCCOCCOCCOCCOCCOCCOCCOCCOCCOCCOCCOCCOCCOCCOCC(OCCOCCOCCOCCOCCOCCOCCOCCOCCOCCOCCOCCOCCOCCOCCOCCOCCOCCOCCOCCO)C1OCC(OCCOCCOCCOCCOCCOCCOCCOCCOCCOCCOCCOCCOCCOCCOCCOCCOCCOCCOCCOCCO)C1OCCOCCOCCOCCOCCOCCOCCOCCOCCOCCOCCOCCOCCOCCOCCOCCOCCOCCOCCOCCO` (stereo not drawn) [Tween-20, polyethylene glycol sorbitan monolaurate, reference compound], the “Effect of detergent” value in data set [1] (all concentrations from 0.1-2.0%) is reported as “inhibited”.

As for `[Cl-].[Cl-].[Zn+2]` [ZnCl2], in data set [1], the “Effect of salt” value is given as “inhibited the activity”. Same read-out and setting: the same measure for `[Ca+2].[Cl-].[Cl-]` [CaCl2]: “inhibited”.

B1: LIPQ: M. tuberculosis putative lipase/esterase gene product expressed in E. coli (protein, UniProt I6Y9F7 1-421, looked up)
Esterase LipQ: MHIASVTSRCSRAGAEALRQGAQLAADARDTCRAGALLLRGSPCAIGWVAGWLSAEFPARVVTGHALSRISPRSIGRFGTSWAAQRADQILHAALVDAFGPDFRDLVWHPTGEQSEAARRSGLLNLPHIPGPHRRYAAQTSDIPYGPGGRENLLDIWRRPDLAPGRRAPVLIQVPGGAWTINGKRPQAYPLMSRMVELGWICVSINYSKSPRCTWPAHIVDVKRAIAWVRENIADYGGDPDFITITGGSAGAHLAALAALSANDPALQPGFESADTAVQAAAPYYGVYDLTNAENMHEMMMPFLEHFVMRSRYVDNPGLFKAASPISYVHSEAPPFFVLHGEKDPMVPSAQSRAFSAALRDAGAATVSYAELPNAHHAFDLAATVRSRMVAEAVSDFLGVIYGRRMGARKGSLALSSPPAS
Molecule B1 showed a TG hydrolase activity in data set [2] of 0.11 nmol/mg/min.

B2: LIPL: M. tuberculosis putative lipase/esterase gene product expressed in E. coli (protein, UniProt P71778 1-429, looked up)
Esterase/beta-lactamase LipL: MMVDTGVDHRAVSSHDGPDAGRRVFGAADPRFACVVRAFASMFPGRRFGGGALAVYLDGQPVVDVWKGWADRAGWVPWSADSAPMVFSATKGMTATVIHRLADRGLIDYEAPVAEYWPAFGANGKATLTVRDVMRHQAGLSGLRGATQQDLLDHVVMEERLAAAVPGRLLGKSAYHALTFGWLMSGLARAVTGKDMRLLFREELAEPLDTDGLHLGRPPADAPTRVAEIIMPQDIAANAVLTCAMRRLAHRFSGGFRSMYFPGAIAAVQGEAPLLDAEIPAANGVATARALARMYGAIANGGEIDGIRFLSRELVTGLTRNRRQVLPDRNLLVPLNFHLGYHGMPIGNVMPGFGHVGLGGSIGWTDPETGVAFALVHNRLLSPLVMTDHAGFVGIYHLIRQAAAQARKRGYQPVTPFGAPYSEPGAAAG
Take B2: the TG hydrolase activity in data set [2] turned out to be 3.4 nmol/mg/min.

B3: LIPN: M. tuberculosis putative lipase/esterase gene product expressed in E. coli (protein, UniProt P95125 1-376, looked up)
Carboxylic ester hydrolase …: MTKSLPGVADLRLGANHPRMWTRRVQGTVVNVGVKVLPWIPTPAKRILSAGRSVIIDGNTLDPTLQLMLSTSRIFGVDGLAVDDDIVASRAHMRAICEAMPGPQIHVDVTDLSIPGPAGEIPARHYRPSGGGATPLLVFYHGGGWTLGDLDTHDALCRLTCRDADIQVLSIDYRLAPEHPAPAAVEDAYAAFVWAHEHASDEFGALPGRVAVGGDSAGGNLSAVVCQLARDKARYEGGPTPVLQWLLYPRTDFTAQTRSMGLFGNGFLLTKRDIDWFHTQYLRDSDVDPADPRLSPLLAESLSGLAPALIAVAGFDPLRDEGESYAKALRAAGTAVDLRYLGSLTHGFLNLFQLGGGSAAGTNELISALRAHLSRV
modifications: expressed in E. coli
Turning to B3, in data set [2], the TG hydrolase activity was 0 nmol/mg/min.

B4: LIPC: M. tuberculosis putative lipase/esterase gene product expressed in E. coli (protein, UniProt P96402 1-403, looked up)
Esterase LipC: MNQRRAAGSTGVAYIRWLLRARPADYMLALSVAGGSLPVVGKHLKPLGGVTAIGVWGARHASDFLSATAKDLLTPGINEVRRRDRASTQEVSVAALRGIVSPDDLAVEWPAPERTPPVCGALRHRRYVHRRRVLYGDDPAQLLDVWRRKDMPTKPAPVLIFVPGGAWVHGSRAIQGYAVLSRLAAQGWVCLSIDYRVAPHHRWPRHILDVKTAIAWARANVDKFGGDRNFIAVAGCSAGGHLSALAGLTANDPQYQAELPEGSDTSVDAVVGIYGRYDWEDRSTPERARFVDFLERVVVQRTIDRHPEVFRDASPIQRVTRNAPPFLVIHGSRDCVIPVEQARSFVERLRAVSRSQVGYLELPGAGHGFDLLDGARTGPTAHAIALFLNQVHRSRAQFAKEVI
B4 yielded a TG hydrolase activity in data set [2] of 3.3 nmol/mg/min.

B5: LIPM: M. tuberculosis putative lipase/esterase gene product expressed in E. coli (protein, UniProt Q50681 1-431, looked up)
Probable carboxylic ester …: MGAPRLIHVIRQIGALVVAAVTAAATINAYRPLARNGFASLWSWFIGLVVTEFPLPTLASQLGGLVLTAQRLTRPVRAVSWLVAAFSALGLLNLSRAGRQADAQLTAALDSGLGPDRRTASAGLWRRPAGGGTAKTPGPLRMLRIYRDYAHDGDISYGEYGRANHLDIWRRPDLDLTGTAPVLFQIPGGAWTTGNKRGQAHPLMSHLAELGWICVAINYRHSPRNTWPDHIIDVKRALAWVKAHISEYGGDPDFIAITGGSAGGHLSSLAALTPNDPRFQPGFEEADTRVQAAVPFYGVYDFTRLQDAMHPMMLPLLERMVVKQPRTANMQSYLDASPVTHISADAPPFFVLHGRNDSLVPVQQARGFVDQLRQVSKQPVVYAELPFTQHAFDLLGSARAAHTAIAVEQFLAEVYATQHAGSEPGPAVAIP
modifications: expressed in E. coli
On to B5, for which, in data set [2], the TG hydrolase activity is 0.02 nmol/mg/min.

B6: LIPI: M. tuberculosis putative lipase/esterase gene product expressed in E. coli (protein, UniProt P71668 1-320, looked up)
Esterase LipI: MPSLDNTADEKPAIDPILLKVLDAVPFRLSIDDGIEAVRQRLRDLPRQPVHPELRVVDLAIDGPAGPIGTRIYWPPTCPDQAEAPVVLYFHGGGFVMGDLDTHDGTCRQHAVGADAIVVSVDYRLAPEHPYPAAIEDAWAATRWVAEHGRQVGADLGRIAVAGDSAGGTIAAVIAQRARDMGGPPIVFQLLWYPSTLWDQSLPSLAENADAPILDVKAIAAFSRWYAGEIDLHNPPAPMAPGRAENLADLPPAYIAVAGYDPLRDDGIRYGELLAAAGVPVEVHNAQTLVHGYVGYAGVVPAATEATNRGLVALRVVLHG
modifications: expressed in E. coli
Turning to B6, in data set [2], the TG hydrolase activity is 0 nmol/mg/min.

B7: LIPJ: M. tuberculosis putative lipase/esterase gene product expressed in E. coli (protein, UniProt O07732 1-462, looked up)
Bifunctional lipase/adenylate …: MAQAPHIHRTRYAKCGDMDIAYQVLGDGPTDLLVLPGPFVPIDSIDDEPSLYRFHRRLASFSRVIRLDHRGVGLSSRLAAITTLGPKFWAQDAIAVMDAVGCEQATIFAPSFHAMNGLVLAADYPERVRSLIVVNGSARPLWAPDYPVGAQVRRADPFLTVALEPDAVERGFDVLSIVAPTVAGDDVFRAWWDLAGNRAGPPSIARAVSKVIAEADVRDVLGHIEAPTLILHRVGSTYIPVGHGRYLAEHIAGSRLVELPGTDTLYWVGDTGPMLDEIEEFITGVRGGADAERMLATIMFTDIVGSTQHAAALGDDRWRDLLDNHDTIVCHEIQRFGGREVNTAGDGFVATFTSPSAAIACADDIVDAVAALGIEVRIGIHAGEVEVRDASHGTDVAGVAVHIGARVCALAGPSEVLVSSTVRDIVAGSRHRFAERGEQELKGVPGRWRLCVLMRDDATRTR
modifications: expressed in E. coli
The molecule B7 displayed a TG hydrolase activity in data set [2] of 0.04 nmol/mg/min.
